The record followed here is patent US20220036967A1, “A METHOD TO DETERMINE AGENTS FOR PERSONALIZED USE” (priority 2018, published 2022).

In this experiment the test system is liver metastasis of a breast carcinoma. The experiment can be described thus: treatment of the individual patient chosen according to the test results. In kind it is in vivo, human. From the text: Biopsy material of a liver metastasis of a breast carcinoma has been obtained from a patient.

For `CCc1c2c(nc3ccc(OC(=O)N4CCC(N5CCCCC5)CC4)cc13)-c1cc3c(c(=O)n1C2)COC(=O)[C@]3(O)CC` [Irinotecan], under “before treatment 22,230 units/ml, infused in two-weeks intervals according to standard protocols”, the “tumor marker CA15.3 after treatment” value is 1513 units. The malignant ascites entry (infused in two-weeks intervals) was “markedly reduced”. As to Keytruda: PDL Antibody therapy, the “tumor markers in controls” value (100 mg) is given as “did not change tumor markers”.
